Experimental data published in patent US10526316B2, “Quinoxaline and pyridopyrazine derivatives as PI3Kβ inhibitors” (Janssen Pharmaceutica NV, priority 2015, dated 2020).
Read-outs that look alike come from different tables or passages of the source.

What was measured:
PI3Kβ = biological target: T1, PI3Kβ (Homo sapiens, UniProt P42338); assay: Enzyme binding assay (KINOMEscan, DiscoveRx); details: PIK3Cβ_h, read-out: Kd PIK3Cβ_h
T1 construct: purchased DiscoveRx Corporation, San Diego (contract service, KINOMEscan)
T1 sequence (P42338 whole entry): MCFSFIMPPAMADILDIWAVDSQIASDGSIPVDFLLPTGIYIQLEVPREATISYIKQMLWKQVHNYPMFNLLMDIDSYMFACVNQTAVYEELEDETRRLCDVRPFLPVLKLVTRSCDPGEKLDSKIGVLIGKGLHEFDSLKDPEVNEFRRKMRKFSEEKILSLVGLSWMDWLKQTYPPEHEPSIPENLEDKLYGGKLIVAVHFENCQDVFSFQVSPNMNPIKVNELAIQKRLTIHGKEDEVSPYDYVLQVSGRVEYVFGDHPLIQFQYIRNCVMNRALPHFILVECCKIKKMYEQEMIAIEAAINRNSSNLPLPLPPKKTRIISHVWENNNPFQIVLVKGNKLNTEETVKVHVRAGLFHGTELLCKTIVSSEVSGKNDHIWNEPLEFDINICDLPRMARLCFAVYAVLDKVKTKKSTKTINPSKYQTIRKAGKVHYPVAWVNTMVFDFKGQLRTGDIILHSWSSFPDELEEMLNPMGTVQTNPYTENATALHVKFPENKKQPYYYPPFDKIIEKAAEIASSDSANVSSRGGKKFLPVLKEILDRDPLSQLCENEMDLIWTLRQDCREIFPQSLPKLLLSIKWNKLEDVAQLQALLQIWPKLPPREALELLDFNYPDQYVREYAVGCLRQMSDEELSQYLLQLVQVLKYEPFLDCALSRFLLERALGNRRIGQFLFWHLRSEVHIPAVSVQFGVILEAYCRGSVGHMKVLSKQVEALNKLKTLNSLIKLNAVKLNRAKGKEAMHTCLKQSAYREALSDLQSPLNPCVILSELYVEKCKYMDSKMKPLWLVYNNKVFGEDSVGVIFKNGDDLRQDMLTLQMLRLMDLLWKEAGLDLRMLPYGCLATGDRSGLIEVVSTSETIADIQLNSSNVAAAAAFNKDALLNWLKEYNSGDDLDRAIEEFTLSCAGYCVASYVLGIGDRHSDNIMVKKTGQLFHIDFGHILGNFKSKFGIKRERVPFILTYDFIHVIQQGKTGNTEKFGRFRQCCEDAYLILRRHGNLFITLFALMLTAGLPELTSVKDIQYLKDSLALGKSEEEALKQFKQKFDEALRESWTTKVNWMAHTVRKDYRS
Description: (§1) Enzyme Binding Assays (KINOMEscan®)
Kinase enzyme binding affinities of compounds disclosed herein were determined using the KINOMEscan technology performed by DiscoveRx Corporation, San Diego, Calif., USA (www.kinomescan.com). Table A reports the obtained Kd values (nM), with the Kd being the inhibitor binding constant: […]

PI3Kδ = biological target: T2, PI3Kδ (Homo sapiens, UniProt O00329); assay: Enzyme binding assay (KINOMEscan, DiscoveRx); details: PIK3Cδ_h
T2 construct: purchased DiscoveRx Corporation, San Diego (contract service, KINOMEscan)
T2 sequence (O00329 1-1044): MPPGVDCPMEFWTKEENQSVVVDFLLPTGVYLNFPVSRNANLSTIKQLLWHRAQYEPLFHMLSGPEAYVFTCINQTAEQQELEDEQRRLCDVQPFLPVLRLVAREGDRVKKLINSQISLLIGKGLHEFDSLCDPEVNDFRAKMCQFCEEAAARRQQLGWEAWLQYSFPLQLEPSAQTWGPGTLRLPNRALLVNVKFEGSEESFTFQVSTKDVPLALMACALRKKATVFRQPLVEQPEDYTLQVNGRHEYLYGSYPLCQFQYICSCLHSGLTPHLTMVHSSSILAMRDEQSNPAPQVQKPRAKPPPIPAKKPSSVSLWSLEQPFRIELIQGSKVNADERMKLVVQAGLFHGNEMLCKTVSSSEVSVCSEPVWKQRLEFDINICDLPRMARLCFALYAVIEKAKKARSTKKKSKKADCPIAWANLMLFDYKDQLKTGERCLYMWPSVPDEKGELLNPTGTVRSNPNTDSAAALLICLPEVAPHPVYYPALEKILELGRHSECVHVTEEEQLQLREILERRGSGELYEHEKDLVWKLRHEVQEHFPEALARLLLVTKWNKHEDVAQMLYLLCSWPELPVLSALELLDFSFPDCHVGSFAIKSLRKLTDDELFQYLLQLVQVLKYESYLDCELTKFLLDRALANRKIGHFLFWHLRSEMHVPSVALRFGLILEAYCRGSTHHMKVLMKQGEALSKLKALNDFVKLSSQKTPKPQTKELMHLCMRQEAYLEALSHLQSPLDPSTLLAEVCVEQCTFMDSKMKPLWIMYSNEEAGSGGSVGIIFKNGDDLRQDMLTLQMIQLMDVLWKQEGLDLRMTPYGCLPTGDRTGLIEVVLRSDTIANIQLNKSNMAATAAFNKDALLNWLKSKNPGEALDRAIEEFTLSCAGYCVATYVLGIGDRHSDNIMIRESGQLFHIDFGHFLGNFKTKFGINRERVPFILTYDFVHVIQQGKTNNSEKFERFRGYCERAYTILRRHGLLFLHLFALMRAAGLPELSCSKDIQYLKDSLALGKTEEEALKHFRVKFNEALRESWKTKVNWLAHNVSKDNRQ
Description: as §1
(§2) Kinase enzyme binding affinities of compounds disclosed herein were determined using the KINOMEscan technology performed by DiscoveRx Corporation, San Diego, Calif., USA (www.kinomescan.com).

[1] = test system: Akt phosphorylated at Ser473 in PC-3 cells; assay: Cellular assay: phosphorylation of Akt at Ser473 in PC-3 cells (MSD ELISA); format: cell-based; details: PC-3 cells, 60 min compound incubation, MSD ELISA, read-out: IC50 pAkt_S473
Description: (§3) Cellular activity of PI3KP inhibitors was determined by quantifying the phosphorylation of Akt in PC-3 cells. Akt phosphorylated at Ser473 and Thr308 were measured using an enzyme-linked immunosorbent assay (ELISA; Meso Scale Discovery (MSD), Gaithersburg. Md.) and specific primary antibodies from MSD.
(§4) On day 2, compound or DMSO (0.3%) was added and cells were further incubated for 60 min at 37° C. 5% CO2 in a total volume of 100 μl of medium.
(§5) The phosphoprotein assay was executed according to vendor instructions in the Phospho-Akt (Ser473) Assay Whole Cell Lysate Kit (MSD # K15100D-3) and the Phospho-Akt (Thr308) Assay Whole Cell Lysate Kit (MSD # K151DYD-3) using the lysis, blocking and wash buffer provided.
(§6) Briefly, at the end of the cell treatment period, media were removed by aspiration and adherent cells were lysed in 50 μl ice-cold lysis buffer. MSD plates are supplied pre-coated with capture antibodies for Phospho-Akt (Ser473 and Thr308). After blocking, lysates from tissue culture plates were added and plates were washed. Then, a solution containing the detection antibody (anti-total Akt conjugated with an electrochemiluminescent compound-MSD Sulfo-tag label) was added. The signals were detected using an MSD SECTOR Imager 6000 and are proportional to the phospho-Akt titres.
(§7) Data were processed. […] From these concentration-response curves, the IC50 values were calculated. Five concentrations were used for curve fitting.

[2] = test system: Akt phosphorylated at Thr308 in PC-3 cells; assay: Cellular assay: phosphorylation of Akt at Thr308 in PC-3 cells (MSD ELISA); format: cell-based; details: PC-3 cells, 60 min compound incubation, MSD ELISA, read-out: IC50 pAkt_Thr308
Description: as §3, §4, §5, §6, §7

kinase enzymes [3] = biological target: T3, kinase enzymes (Homo sapiens, UniProt P42345); assay: Enzyme binding assay (KINOMEscan, DiscoveRx), further kinases of Table A; details: MTOR_h
T3 construct: purchased DiscoveRx Corporation, San Diego (contract service, KINOMEscan)
Description: as §1, §2

kinase enzymes [4] = biological target: T4, kinase enzymes (Homo sapiens, UniProt P48736); assay: as above; details: PIK3Cγ_h
T4 construct: purchased DiscoveRx Corporation, San Diego (contract service, KINOMEscan)
T4 sequence (P48736 whole entry): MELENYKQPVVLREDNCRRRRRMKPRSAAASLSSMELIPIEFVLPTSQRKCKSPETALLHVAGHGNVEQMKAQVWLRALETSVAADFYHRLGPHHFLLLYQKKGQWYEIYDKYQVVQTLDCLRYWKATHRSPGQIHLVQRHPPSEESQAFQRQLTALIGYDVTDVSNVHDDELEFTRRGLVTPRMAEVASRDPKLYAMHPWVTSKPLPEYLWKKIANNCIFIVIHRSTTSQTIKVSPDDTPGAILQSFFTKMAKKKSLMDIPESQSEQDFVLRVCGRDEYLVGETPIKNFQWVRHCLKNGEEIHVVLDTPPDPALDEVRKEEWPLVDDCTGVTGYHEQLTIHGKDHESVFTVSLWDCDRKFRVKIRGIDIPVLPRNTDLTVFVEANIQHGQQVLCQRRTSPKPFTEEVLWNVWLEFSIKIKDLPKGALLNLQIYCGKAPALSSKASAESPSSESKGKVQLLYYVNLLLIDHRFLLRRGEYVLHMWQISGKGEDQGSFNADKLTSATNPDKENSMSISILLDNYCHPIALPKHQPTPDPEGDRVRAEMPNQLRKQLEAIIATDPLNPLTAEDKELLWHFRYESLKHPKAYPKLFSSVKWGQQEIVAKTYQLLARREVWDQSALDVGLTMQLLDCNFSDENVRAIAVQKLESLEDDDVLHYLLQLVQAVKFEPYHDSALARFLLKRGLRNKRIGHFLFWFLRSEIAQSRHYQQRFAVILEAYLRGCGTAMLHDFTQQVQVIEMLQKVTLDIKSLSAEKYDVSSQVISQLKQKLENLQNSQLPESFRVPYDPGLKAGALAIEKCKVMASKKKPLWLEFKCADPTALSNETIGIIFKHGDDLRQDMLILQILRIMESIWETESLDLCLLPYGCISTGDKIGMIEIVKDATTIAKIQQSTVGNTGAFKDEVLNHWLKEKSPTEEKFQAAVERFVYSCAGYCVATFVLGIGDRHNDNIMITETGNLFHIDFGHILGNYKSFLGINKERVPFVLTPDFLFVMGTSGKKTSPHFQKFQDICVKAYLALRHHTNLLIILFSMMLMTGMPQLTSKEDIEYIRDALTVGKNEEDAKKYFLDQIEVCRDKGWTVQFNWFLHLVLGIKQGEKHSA
Description: as §1, §2

kinase enzymes [5] = biological target: T5, kinase enzymes (Homo sapiens, UniProt P42336); assay: as above; details: PIK3Cα_h
T5 construct: purchased DiscoveRx Corporation, San Diego (contract service, KINOMEscan)
T5 sequence (P42336 whole entry): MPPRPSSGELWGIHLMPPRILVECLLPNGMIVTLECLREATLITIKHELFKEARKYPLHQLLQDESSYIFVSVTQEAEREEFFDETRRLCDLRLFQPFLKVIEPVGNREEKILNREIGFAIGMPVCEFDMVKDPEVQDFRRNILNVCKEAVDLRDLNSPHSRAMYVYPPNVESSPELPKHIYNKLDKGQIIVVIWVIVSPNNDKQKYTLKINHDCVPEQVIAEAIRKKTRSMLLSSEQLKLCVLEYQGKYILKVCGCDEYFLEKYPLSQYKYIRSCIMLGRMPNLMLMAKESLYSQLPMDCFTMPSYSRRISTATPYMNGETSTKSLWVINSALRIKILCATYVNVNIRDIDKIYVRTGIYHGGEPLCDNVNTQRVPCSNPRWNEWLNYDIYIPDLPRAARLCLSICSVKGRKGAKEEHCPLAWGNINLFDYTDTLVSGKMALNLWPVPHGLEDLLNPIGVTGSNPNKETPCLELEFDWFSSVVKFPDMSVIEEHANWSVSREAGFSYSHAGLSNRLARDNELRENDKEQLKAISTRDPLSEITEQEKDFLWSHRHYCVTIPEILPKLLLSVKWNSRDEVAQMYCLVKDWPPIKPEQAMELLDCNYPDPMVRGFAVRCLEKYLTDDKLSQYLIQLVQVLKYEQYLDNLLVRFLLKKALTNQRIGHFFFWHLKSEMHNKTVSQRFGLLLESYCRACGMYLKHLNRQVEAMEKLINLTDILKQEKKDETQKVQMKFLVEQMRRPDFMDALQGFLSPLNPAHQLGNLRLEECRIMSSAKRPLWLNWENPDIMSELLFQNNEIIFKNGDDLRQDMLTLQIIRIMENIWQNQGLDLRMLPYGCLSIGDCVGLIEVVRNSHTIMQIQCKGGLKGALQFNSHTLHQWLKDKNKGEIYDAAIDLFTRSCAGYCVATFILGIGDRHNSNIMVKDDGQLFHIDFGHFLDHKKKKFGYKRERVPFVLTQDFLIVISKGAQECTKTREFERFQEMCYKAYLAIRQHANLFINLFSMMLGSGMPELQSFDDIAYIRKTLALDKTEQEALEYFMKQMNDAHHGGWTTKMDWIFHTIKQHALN
Description: as §1, §2

Row | SMILES | Kd (PI3Kβ) | Kd (PI3Kδ) | IC50 [1] | IC50 [2] | Kd (kinase enzymes [3]) | Kd (kinase enzymes [4]) | Kd (kinase enzymes [5]) | IC50 ([1]; Homo sapiens, PC-3, 1 h) | IC50 ([2]; Homo sapiens, PC-3, 1 h)
1 | CC(Oc1cccc(F)c1)c1cc(CO)cc2ncc(N3CCOCC3)nc12 (single isomer, unassigned) [Compound 89] | 832 nM | 11700 nM | > 513 nM | > 513 nM | 13500 nM | 9550 nM | 7240 nM | – | –
2 | CCN1CCN(C(=O)c2cc(C(C)Oc3cccc(F)c3)c3nc(N4CCOCC4)cnc3c2)CC1 (single isomer, unassigned) [Compound 91] | 10 nM | 1230 nM | – | 234 nM | > 30200 nM | 21400 nM | 4470 nM | > 513 nM | –
3 | O=C(NCCO)c1cc(NCc2cc(F)cc(F)c2)c2nc(N3CCOCC3)cnc2c1 [Compound 229] | 7 nM | 1740 nM | – | – | 12600 nM | 20400 nM | 3890 nM | 186 nM | 96 nM
4 | CC(Oc1cccc(F)c1)c1cc(CO)cc2ncc(N3CCOCC3)nc12 (single isomer, unassigned) [Compound 88] | 5 nM | 603 nM | 178 nM | 89 nM | 14100 nM | 4680 nM | 2140 nM | – | –
5 | CC(Oc1cccc(F)c1)c1cc(C(=O)N(C)C)cc2ncc(N3CCOCC3)nc12 (single isomer, unassigned) [Compound 339a] | 112 nM | 2090 nM | > 513 nM | 407 nM | > 30200 nM | 10700 nM | 4570 nM | – | –
6 | CC(Nc1cccc(F)c1)c1cc(C(=O)NC[C@@H](C)O)cc2ncc(N3CCOCC3)nc12 (stereo partly drawn) [Compound 338] | 12 nM | 2950 nM | – | – | > 30200 nM | 4370 nM | 2340 nM | 275 nM | 98 nM
7 | CC(Nc1cc(F)cc(F)c1)c1cc(C(=O)N2CCOCC2)cc2ncc(N3CCOCC3)nc12 (single isomer, unassigned) [Compound 9] | 417 nM | 18200 nM | > 513 nM | > 513 nM | > 30200 nM | > 30200 nM | 27500 nM | – | –
8 | CC(Nc1cc(F)cc(F)c1)c1cc(C(=O)NS(=O)(=O)C2CC2)cc2ncc(N3CCOCC3)nc12 (single isomer, unassigned) [Compound 219] | 1 nM | 275 nM | – | – | 3310 nM | 955 nM | 93 nM | > 513 nM | > 513 nM
9 | Cc1c(F)cccc1CN(C)c1cc(C(=O)N(C)CCNC(C)C)cc2ncc(N3CCOCC3)nc12 [Compound 386] | 15 nM | 692 nM | – | – | 24500 nM | 14800 nM | 3240 nM | > 513 nM | > 513 nM
10 | COC(=O)[C@H]1CCCN1C(=O)c1cc(C(C)Nc2cc(F)cc(F)c2)c2nc(N3CCOCC3)cnc2c1 (stereo partly drawn) [Compound 272] | 5 nM | 2000 nM | – | – | > 30200 nM | > 30200 nM | 4900 nM | 151 nM | ~85 nM
11 | CC(Nc1cc(F)cc(F)c1)c1cc(C(=O)N(C)C)cc2ncc(C3=CCOCC3)nc12 (single isomer, unassigned) [Compound 159] | 110 nM | 23400 nM | > 513 nM | > 513 nM | > 30200 nM | > 30200 nM | > 30200 nM | – | –
12 | CCN1CCN(C(=O)c2cc(C(C)Oc3cccc(F)c3)c3nc(N4CCOCC4)cnc3c2)CC1 (stereo not drawn) [Compound 90] | 17 nM | 741 nM | – | – | > 30200 nM | 22900 nM | 9120 nM | > 513 nM | > 513 nM
13 | CC(Nc1cc(F)cc(F)c1)c1cc(C(=O)N2CCNC(C(F)(F)F)C2)cc2ncc(N3CCOCC3)nc12 (single isomer, unassigned) [Compound 237d] | 240 nM | 19500 nM | > 513 nM | > 513 nM | > 30200 nM | > 30200 nM | 12600 nM | – | –
14 | CN(C)CCNC(=O)c1cc(NCc2cc(F)cc(F)c2)c2nc(N3CCOCC3)cnc2c1 [Compound 384] | 1 nM | 575 nM | – | – | 20000 nM | 15800 nM | 2690 nM | 20 nM | 7 nM
15 | COC1CN(Cc2cc(C(C)Nc3cc(F)cc(F)c3)c3nc(N4CCOCC4)cnc3c2)CC1OC (single isomer, unassigned) [Compound 205] | 204 nM | 17400 nM | – | > 513 nM | > 30200 nM | > 30200 nM | > 30200 nM | > 513 nM | –
16 | CC(Nc1cc(F)cc(F)c1)c1cc(C(=O)N2CCOCC2)cc2ncc(N3CCOCC3)nc12 (stereo not drawn) [Compound 7] | 2 nM | 245 nM | 42 nM | 21 nM | > 30200 nM | 10000 nM | 513 nM | – | –

Other lines, results leading:

Row | Kd (PI3Kβ) | Kd (PI3Kδ) | IC50 [1] | IC50 [2] | Kd (kinase enzymes [3]) | Kd (kinase enzymes [4]) | Kd (kinase enzymes [5]) | IC50 ([1]; Homo sapiens, PC-3, 1 h) | IC50 ([2]; Homo sapiens, PC-3, 1 h) | SMILES
17 | 417 nM | 6030 nM | ~407 nM | > 513 nM | 19100 nM | 30200 nM | 17400 nM | – | – | CC(C)NCCNC(=O)c1cc(C(C)Oc2cccc(F)c2)c2nc(N3CCOCC3)cnc2c1 (single isomer, unassigned) [Compound 314a]
18 | 1320 nM | 25700 nM | > 513 nM | > 513 nM | > 30200 nM | > 30200 nM | > 30200 nM | – | – | CC(Nc1ccc(F)c(F)c1)c1cc(C(=O)NCC(C)(C)O)cc2ncc(N3CCOCC3)nc12 (single isomer, unassigned) [Compound 348b]
19 | 302 nM | 5490 nM | > 513 nM | > 513 nM | > 30200 nM | > 30200 nM | 14500 nM | – | – | CC(Oc1ccc(Cl)c(F)c1)c1cc(C(=O)N(C)CCN(C)C)cc2ncc(N3CCOCC3)nc12 (single isomer, unassigned) [Compound 313b]
20 | 1 nM | 1070 nM | 398 nM | 295 nM | > 30200 nM | 16600 nM | 5250 nM | – | – | CC(Oc1cc(F)c(F)c(F)c1)c1cc(C(=O)N(C)C2CCNC2)cc2ncc(N3CCOCC3)nc12 (single isomer, unassigned) [Compound 404b]
21 | 724 nM | 22900 nM | > 513 nM | > 513 nM | > 30200 nM | > 30200 nM | > 30200 nM | – | – | CNCCOCCN(C)C(=O)c1cc(C(C)Nc2ccc(F)c(F)c2)c2nc(N3CCOCC3)cnc2c1 (single isomer, unassigned) [Compound 345b]
